One block for each molecule: values may come before it.
What was measured:
MCF7 = test: Antiproliferative activity against human MCF7 cells assessed as cell growth inhibition; assay type: functional, cell-based
[1] = Antiproliferative activity against human MCF-10A cells assessed as cell growth inhibition; assay type: toxicity, cell-based
MDA-MB-231 [2] = test: Antiproliferative activity against lung metastasis variant of human MDA-MB-231 cells assessed as cell growth inhibition; assay type: functional, cell-based
HCC1419 = test: Antiproliferative activity against human HCC1419 cells assessed as cell growth inhibition; assay type: functional, cell-based
MDA-MB-231 [3] = test: Antiproliferative activity against human MDA-MB-231 cells assessed as cell growth inhibition; assay type: functional, cell-based
MV4-11 = test: Antiproliferative activity against human MV4-11 cells assessed as cell viability by WST-1 assay; assay type: functional, cell-based
NCI-H23 = test: Antiproliferative activity against human NCI-H23 cells assessed as cell viability by WST-1 assay; assay type: functional, cell-based
MDA-MB-468 = test: Antiproliferative activity against human MDA-MB-468 cells assessed as cell viability by WST-1 assay; assay type: functional, cell-based
A549 = test: Antiproliferative activity against human A549 cells assessed as cell viability by WST-1 assay; assay type: functional, cell-based
MG-63 = test: Antiproliferative activity against human MG-63 cells assessed as cell viability by WST-1 assay; assay type: functional, cell-based
MDA-MB-231 [4] = test: Antiproliferative activity against human MDA-MB-231 cells assessed as cell viability by WST-1 assay; assay type: functional, cell-based
[5] = Cytotoxicity against mouse MS-1 cells assessed as cell growth inhibition by anti-angiogenisis screening assay; assay type: toxicity, cell-based
RPMI-7951 = test: Growth inhibition of human RPMI-7951 cells measured after 72 hrs by microplate reader analysis; assay type: functional, cell-based; conditions: RPMI-7951, time 72 hrs
MDA-MB-231 [6] = test: Growth inhibition of human MDA-MB-231 cells measured after 72 hrs by microplate reader analysis; assay type: functional
[7] = Cytotoxicity against mouse SVR cells assessed as cell growth inhibition by anti-angiogenisis screening assay; assay type: toxicity, cell-based
[8] = Cytotoxicity against HUVEC cells assessed as cell growth inhibition by anti-angiogenisis screening assay; assay type: toxicity, cell-based; conditions: human
[9] = Cytotoxicity activity against mouse SVR cells assessed as cell growth inhibition at 6 ug/ml relative to control; assay type: toxicity, cell-based; conditions: at 6 µg/mL
[10] = Cytotoxicity activity against mouse SVR cells assessed as cell growth inhibition at 4 ug/ml relative to control; assay type: toxicity, cell-based; conditions: at 4 µg/mL
B16 = test: Antiproliferative activity against mouse B16 cells assessed as cell growth inhibition; assay type: functional, cell-based
Ca-Ski = test: Antiproliferative activity against human Ca-Ski cells assessed as cell growth inhibition measured after 72 hrs by MTT assay; assay type: functional, cell-based
[11] = Antiproliferative activity against human MRC9 cells assessed as cell growth inhibition measured after 72 hrs by MTT assay; assay type: functional, cell-based; conditions: MRC9, 72 h
HeLa [12] = test: Antiproliferative activity against human HeLa cells assessed as cell growth inhibition measured after 72 hrs by MTT assay; assay type: functional, cell-based; conditions: Homo sapiens, HeLa, 72 h
HCT-116 = test: Antiproliferative activity against human HCT116 cells assessed as cell growth inhibition measured after 96 hrs; assay type: functional, cell-based; conditions: HCT-116, 96 h
HeLa [13] = test: Antiproliferative activity against human HeLa cells assessed as cell growth inhibition measured after 24 hrs by MTT assay; assay type: functional, cell-based
HepG2 = test: Antiproliferative activity against human HepG2 cells assessed as cell growth inhibition measured after 24 hrs by MTT assay; assay type: functional, cell-based; conditions: HepG2, 24 h
THP-1 = test: Antiproliferative activity against human THP-1 cells assessed as cell growth inhibition measured after 24 hrs by MTT assay; assay type: functional, cell-based; conditions: THP-1, 24 h
K562 = test: Antiproliferative activity against human K562 cells assessed as cell growth inhibition measured after 24 hrs by MTT assay; assay type: functional, cell-based; conditions: K562, 24 h

SMILES: CCN(CC)CCOc1ccc(C(=O)N2C/C(=C\c3ccccc3)C(=O)/C(=C/c3ccccc3)C2)cc1
IC50 (MCF7): 1640 nM
IC50 [1]: 41000 nM
IC50 (MDA-MB-231 [2]): 530 nM
IC50 (HCC1419): 1460 nM
IC50 (MDA-MB-231 [3]): 720 nM

SMILES: COc1cc(/C=C2\CN(C)C/C(=C\c3cc(OC)c(OC)c(OC)c3)C2=O)cc(OC)c1OC
IC50 (MV4-11): 390 nM
IC50 (NCI-H23): 390 nM
IC50 (MDA-MB-468): 390 nM
IC50 (A549): 390 nM
IC50 (MG-63): 390 nM
IC50 (MDA-MB-231 [4]): 390 nM

SMILES: O=C(/C=C/c1ccccc1)/C=C/c1ccccc1
inhibition at 6 ug/ml [9]: 90.4%
inhibition at 4 ug/ml [10]: 87.1%

SMILES: O=C(/C=C/c1c(Cl)cccc1Cl)/C=C/c1c(Cl)cccc1Cl
inhibition at 6 ug/ml [9]: 90.4%
inhibition at 4 ug/ml [10]: 87.1%

SMILES: O=C(/C=C/c1cccc(O)c1)/C=C/c1cccc(O)c1
GI50 [5]: 3200 nM
GI50 (RPMI-7951): 2300 nM
GI50 (MDA-MB-231 [6]): 1000 nM
GI50 [7]: 3200 nM
GI50 [8]: 3200 nM

SMILES: COc1ccc(/C=C/C(=O)/C=C/c2ccc(OC)c(OC)c2)cc1OC
IC50 (HCT-116): 1500 nM

SMILES: COc1cc(/C=C/C(=O)/C=C/c2cc(OC)c(OC)c(OC)c2)cc(OC)c1OC
IC50 (HCT-116): 250 nM

The next lines start with results.

IC50 (MCF7): 1640 nM
IC50 (MDA-MB-231 [2]): 530 nM
IC50 (HCC1419): 1460 nM
IC50 (MDA-MB-231 [3]): 720 nM
SMILES: Cc1ccc(/C=C2\CN(C(=O)c3ccc(OCCN(C)C)cc3)C/C(=C\c3ccc(C)cc3)C2=O)cc1
IC50 [1]: 41000 nM

IC50 (MV4-11): 390 nM
IC50 (NCI-H23): 390 nM
IC50 (MDA-MB-468): 390 nM
IC50 (A549): 390 nM
IC50 (MDA-MB-231 [4]): 390 nM
SMILES: O=C1/C(=C/c2ccccc2Cl)CNC/C1=C\c1ccccc1Cl
IC50 (MG-63): 390 nM

IC50 (MV4-11): 390 nM
IC50 (NCI-H23): 390 nM
IC50 (MDA-MB-468): 390 nM
IC50 (A549): 390 nM
IC50 (MDA-MB-231 [4]): 390 nM
SMILES: O=C1/C(=C/c2ccccc2Br)CNC/C1=C\c1ccccc1Br
IC50 (MG-63): 390 nM

GI50 (MDA-MB-231 [6]): 1000 nM
SMILES: O=C(/C=C/c1ccc(O)cc1)/C=C/c1ccc(O)cc1
GI50 [5]: 3200 nM
GI50 (RPMI-7951): 2300 nM
GI50 [7]: 3200 nM
GI50 [8]: 3200 nM

IC50 (B16): 200 nM
SMILES: COc1cc(/C=C2\CNC/C(=C\c3cc(OC)cc(OC)c3)C2=O)cc(OC)c1

EC50 (HeLa [12]): 8300 nM
SMILES: O=C1/C(=C/c2cccc(F)c2)CCC/C1=C\c1cccc(F)c1
EC50 (Ca-Ski): 6000 nM
EC50 [11]: 16400 nM

IC50 (MV4-11): 390 nM
IC50 (NCI-H23): 390 nM
IC50 (MDA-MB-468): 390 nM
IC50 (A549): 390 nM
IC50 (MDA-MB-231 [4]): 390 nM
SMILES: COc1cccc(/C=C2\CNC/C(=C\c3cccc(OC)c3OC)C2=O)c1OC
IC50 (MG-63): 390 nM

IC50 (MV4-11): 390 nM
IC50 (NCI-H23): 390 nM
IC50 (MDA-MB-468): 390 nM
IC50 (A549): 390 nM
IC50 (MDA-MB-231 [4]): 390 nM
SMILES: COc1cc(/C=C2\CN(C(=O)C(C)C)C/C(=C\c3cc(OC)c(OC)c(OC)c3)C2=O)cc(OC)c1OC
IC50 (MG-63): 390 nM

IC50 (HeLa [13]): < 5000 nM
IC50 (HepG2): < 5000 nM
IC50 (THP-1): < 5000 nM
IC50 (K562): < 5000 nM
SMILES: O=C1/C(=C/c2cccc(/N=C/c3ccc(O)cc3O)c2)CCC/C1=C\c1cccc(/N=C/c2ccc(O)cc2O)c1

From ChEMBL document CHEMBL5244235, “Diarylpentanoids with antitumor activity: A critical review of structure-activity relationship studies” (Eur J Med Chem, 2020)
